{
  "source": "paper PMC2909763",
  "about": "(Chemistry & biology, 2009)",
  "key": {"[1]": {"system": "FXN mRNA in FRDA lymphoblasts", "details": "FRDA cells in culture; ref Herman et al., 2006; cited from earlier work"}, "HDAC": {"system": "HDAC", "details": "read-out: IC50 as HDAC inhibitor; ref Herman et al., 2006; cited from earlier work"}, "[2]": {"system": "FXN mRNA in primary lymphocytes from FRDA patients", "test": "FXN mRNA by qRT-PCR in primary FRDA patient lymphocytes", "assay_type": "cell-based, human", "details": "for up-regulation of FXN mRNA: normalized to GAPDH mRNA, relative to DMSO"}, "[3]": {"system": "FXN mRNA in patient fibroblasts", "test": "FXN mRNA in FRDA patient fibroblasts", "assay_type": "cell-based, human", "details": "concentrations up to 10 μM, not shown"}, "Sirt2": {"system": "Sirt2", "details": "read-out: IC50 Sirt2; reported; ref Napper et al., 2005; cited from earlier work"}, "Sirt1": {"system": "Sirt1", "details": "read-out: IC50 Sirt1; reported; ref Napper et al., 2005; cited from earlier work"}, "[4]": {"system": "FXN mRNA in FRDA lymphoblasts", "test": "FXN mRNA by qRT-PCR in FRDA lymphoblast cell line", "assay_type": "cell-based, human"}, "[5]": {"system": "p21^WAF1 mRNA in HEK293 cells", "test": "p21WAF1 mRNA levels in HEK293 cells", "assay_type": "cell-based", "details": "data not shown"}, "[6]": {"system": "frataxin protein in FRDA lymphoblasts", "test": "Frataxin protein by western blot in FRDA lymphoblasts", "assay_type": "cell-based, human", "details": "106 or 3 at 10 μM, SAHA at 2 μM, 48 h, normalized to GAPDH"}, "class I HDACs": {"system": "class I HDACs", "details": "ref Chou et al., 2008; cited from earlier work"}, "HDAC3/NcoR2": {"molecular_target": "HDAC3/NcoR2 (Homo sapiens, UniProt O15379)", "sequence (O15379 whole entry)": "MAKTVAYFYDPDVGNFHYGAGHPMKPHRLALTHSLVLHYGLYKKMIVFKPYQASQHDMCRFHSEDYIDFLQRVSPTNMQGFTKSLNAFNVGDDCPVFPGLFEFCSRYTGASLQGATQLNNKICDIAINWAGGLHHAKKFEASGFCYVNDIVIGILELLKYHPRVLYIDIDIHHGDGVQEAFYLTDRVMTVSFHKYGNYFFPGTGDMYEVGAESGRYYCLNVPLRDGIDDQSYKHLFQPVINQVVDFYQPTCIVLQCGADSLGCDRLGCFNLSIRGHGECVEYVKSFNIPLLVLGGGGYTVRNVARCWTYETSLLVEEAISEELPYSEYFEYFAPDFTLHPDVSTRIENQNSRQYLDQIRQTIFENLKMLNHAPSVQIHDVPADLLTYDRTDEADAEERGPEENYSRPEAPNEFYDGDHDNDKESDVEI", "sequence (Q9Y618 395-489 partner limits assumed)": "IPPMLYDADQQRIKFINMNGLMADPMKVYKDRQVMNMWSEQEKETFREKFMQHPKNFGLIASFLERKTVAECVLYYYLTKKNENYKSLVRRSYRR", "test": "Ki and kinetics from enzyme progression curves, HDAC3", "assay_type": "biochemical", "details": "fit of Kobs versus inhibitor concentration"}, "[7]": {"system": "tubulin acetylation (class II HDAC6) in FRDA lymphoblasts", "test": "Tubulin acetylation by western blot in FRDA lymphoblasts", "assay_type": "cell-based, human"}, "HDAC1 [8]": {"molecular_target": "T1, HDAC1 (Homo sapiens, UniProt Q13547)", "T1 sequence (Q13547 whole entry)": "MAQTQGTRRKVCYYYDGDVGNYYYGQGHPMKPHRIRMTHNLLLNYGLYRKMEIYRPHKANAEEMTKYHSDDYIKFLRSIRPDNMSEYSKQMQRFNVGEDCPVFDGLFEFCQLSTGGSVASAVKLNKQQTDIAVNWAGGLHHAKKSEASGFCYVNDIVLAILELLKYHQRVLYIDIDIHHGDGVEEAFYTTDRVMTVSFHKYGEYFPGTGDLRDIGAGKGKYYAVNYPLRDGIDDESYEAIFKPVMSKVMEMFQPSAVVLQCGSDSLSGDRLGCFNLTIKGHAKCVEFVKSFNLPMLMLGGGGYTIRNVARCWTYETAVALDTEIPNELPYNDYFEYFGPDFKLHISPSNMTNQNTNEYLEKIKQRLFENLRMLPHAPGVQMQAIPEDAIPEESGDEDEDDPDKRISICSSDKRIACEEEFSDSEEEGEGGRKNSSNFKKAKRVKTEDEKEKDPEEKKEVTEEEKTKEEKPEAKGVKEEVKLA", "test": "IC50 with recombinant HDAC1", "assay_type": "biochemical"}, "HDAC1 [9]": {"molecular_target": "T1, HDAC1", "test": "Ki and kinetics from enzyme progression curves, HDAC1", "assay_type": "biochemical"}, "[10]": {"system": "acetylated histone H3 in FRDA lymphoblast cell line", "test": "Histone H3 acetylation by western blot in FRDA lymphoblasts", "assay_type": "cell-based, human", "details": "for hyperacetylation of histone H3 after inhibitor removal: 3 or 106 at 10 μM, SAHA at 2 μM, 24 h, then washed, 0 to 7 h"}, "recombinant HDAC2": {"molecular_target": "recombinant HDAC2 (Homo sapiens, UniProt Q92769)", "sequence (Q92769 whole entry)": "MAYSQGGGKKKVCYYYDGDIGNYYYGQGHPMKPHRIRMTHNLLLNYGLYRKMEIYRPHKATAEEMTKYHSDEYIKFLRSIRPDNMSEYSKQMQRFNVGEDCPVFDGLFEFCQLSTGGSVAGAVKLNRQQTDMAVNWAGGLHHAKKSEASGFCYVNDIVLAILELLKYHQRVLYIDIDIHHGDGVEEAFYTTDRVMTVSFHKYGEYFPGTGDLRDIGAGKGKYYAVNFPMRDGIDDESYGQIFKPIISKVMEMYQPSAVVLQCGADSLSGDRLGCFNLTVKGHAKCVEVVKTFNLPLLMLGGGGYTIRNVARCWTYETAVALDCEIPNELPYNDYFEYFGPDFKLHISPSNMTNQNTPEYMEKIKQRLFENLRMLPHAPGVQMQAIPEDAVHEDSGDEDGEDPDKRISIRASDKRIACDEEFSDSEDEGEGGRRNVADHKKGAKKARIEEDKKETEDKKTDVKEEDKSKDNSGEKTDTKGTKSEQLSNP", "test": "Inhibition of recombinant HDAC2", "assay_type": "biochemical", "details": "data not shown"}, "HDAC7": {"molecular_target": "T2, HDAC7 (Homo sapiens, UniProt Q8WUI4)", "T2 sequence (Q8WUI4 1-952)": "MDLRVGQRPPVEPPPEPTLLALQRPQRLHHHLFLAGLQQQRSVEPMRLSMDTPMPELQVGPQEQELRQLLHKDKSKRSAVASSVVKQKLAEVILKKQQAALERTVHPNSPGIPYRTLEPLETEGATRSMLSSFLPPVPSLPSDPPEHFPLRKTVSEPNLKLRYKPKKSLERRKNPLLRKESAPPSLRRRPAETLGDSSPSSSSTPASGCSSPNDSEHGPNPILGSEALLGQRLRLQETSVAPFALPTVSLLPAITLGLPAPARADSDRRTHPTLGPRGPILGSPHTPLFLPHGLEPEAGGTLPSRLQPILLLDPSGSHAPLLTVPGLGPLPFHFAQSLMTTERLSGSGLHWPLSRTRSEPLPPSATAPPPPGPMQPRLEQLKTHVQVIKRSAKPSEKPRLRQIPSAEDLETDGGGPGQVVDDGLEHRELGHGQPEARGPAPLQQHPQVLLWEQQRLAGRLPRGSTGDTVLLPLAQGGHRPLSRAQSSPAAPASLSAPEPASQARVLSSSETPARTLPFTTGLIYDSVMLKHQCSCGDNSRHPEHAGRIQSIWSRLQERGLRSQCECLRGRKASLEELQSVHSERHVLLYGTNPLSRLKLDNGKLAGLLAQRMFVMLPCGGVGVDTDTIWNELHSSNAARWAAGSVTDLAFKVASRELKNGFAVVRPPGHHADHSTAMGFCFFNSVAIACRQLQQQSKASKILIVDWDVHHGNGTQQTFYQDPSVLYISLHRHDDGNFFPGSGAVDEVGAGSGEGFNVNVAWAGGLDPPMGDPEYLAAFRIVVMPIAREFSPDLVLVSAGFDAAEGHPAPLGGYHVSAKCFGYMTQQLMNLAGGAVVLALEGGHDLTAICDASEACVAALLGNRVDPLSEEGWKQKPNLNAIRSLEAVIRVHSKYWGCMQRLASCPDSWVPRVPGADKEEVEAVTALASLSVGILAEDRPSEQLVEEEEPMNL", "test": "IC50 with recombinant HDAC7", "assay_type": "biochemical"}, "class II HDACs": {"system": "class II HDACs", "details": "read-out: IC50s for class II enzymes; ref Chou et al., 2008; cited from earlier work"}, "recombinant HDAC8": {"system": "recombinant HDAC8", "details": "ref Chou et al., 2008; cited from earlier work"}, "[11]": {"details": "recombinant HDAC1 vs HDAC3/NcoR2"}},
  "note": "Entries after “also recorded” stand apart in the source; their conditions may differ.",
  "data": [
    {"smiles": "O=C(CCCCCC(=O)Nc1ccccc1)Nc1ccccc1", "note": "[5b, N^1-phenyl-N^7-phenylheptanediamide]", "values": [
      {"measurement": "activation of FXN gene expression", "setting": "[1]", "value": "fails to activate"},
      {"measurement": "IC50", "setting": "HDAC", "value": "~200", "unit": "µM"}
    ]},
    {"smiles": "NC(=O)C1CCCc2c1[nH]c1ccc(Cl)cc21", "note": "(stereo not shown) [6-chloro-2,3,4,9-tetrahydro-1H-carbazole-1-carboxamide]", "values": [
      {"measurement": "effect on FXN mRNA levels", "setting": "[2]; concentrations up to 10 μM, 48 h", "value": "no effect"},
      {"measurement": "effect on FXN mRNA levels", "setting": "[3]", "value": "no effect"},
      {"measurement": "IC50", "setting": "Sirt2", "value": "[…]"},
      {"measurement": "IC50", "setting": "Sirt1", "value": "[…]"},
      {"measurement": "effect on FXN mRNA levels", "setting": "[4]; concentrations up to 10 μM, not shown", "value": "no effect"}
    ]},
    {"smiles": "O=C(CCCCCCC(=O)Nc1ccccc1)NO", "note": "[SAHA, suberoylanilide hydroxamic acid, reference compound]", "values": [
      {"measurement": "p21^WAF1 mRNA levels", "setting": "[5]", "value": "increased"},
      {"measurement": "activation of FXN gene expression", "setting": "[1]", "value": "neither TSA nor SAHA is an activator"},
      {"measurement": "effect on frataxin protein levels", "setting": "[6]", "value": "decreased"}
    ]},
    {"smiles": "CC(/C=C/C(=O)NO)=C\\[C@@H](C)C(=O)c1ccc(N(C)C)cc1", "note": "[TSA, trichostatin A, reference compound]", "values": [
      {"measurement": "activation of FXN gene expression", "setting": "[1]", "value": "neither TSA nor SAHA is an activator"},
      {"measurement": "inhibition kinetics with class I HDACs", "setting": "class I HDACs", "value": "fast-on/fast-off"}
    ]},
    {"smiles": "Nc1ccc(-c2ccccc2)cc1NC(=O)CCCCCC(=O)Nc1ccccc1", "note": "[compound 3, N^1-(4-aminobiphenyl-3-yl)-N^7-phenylheptanediamide]", "values": [
      {"measurement": "up-regulation of FXN mRNA levels", "setting": "[2]; 48 h", "value": "fails to reproducibly up-regulate"},
      {"measurement": "up-regulation of FXN mRNA", "setting": "[2]; 48 h", "value": "≤ 1.7", "unit": "fold"},
      {"measurement": "inhibition mechanism, HDAC3/NcoR2", "setting": "HDAC3/NcoR2", "value": "simple slow-on/slow-off mechanism"},
      {"measurement": "tubulin acetylation", "setting": "[7]; FRDA lymphoblasts", "value": "Neither 106 nor 3 caused tubulin acetylation"},
      {"measurement": "p21^WAF1 mRNA levels", "setting": "[5]", "value": "increased"},
      {"measurement": "preference for HDAC1 over HDAC3 comparing IC50 values", "setting": "HDAC1 [8]; [11]", "value": "~ 75 fold"},
      {"measurement": "inhibition mechanism, HDAC1", "setting": "HDAC1 [9]; fit of Kobs versus inhibitor concentration", "value": "slow-on/slow-off"},
      {"measurement": "preference for HDAC1 over HDAC3 from Ki measurements", "setting": "HDAC1 [9]; [11]", "value": "~ 350 fold"},
      {"measurement": "hyperacetylation of histone H3 after inhibitor removal", "setting": "[10]", "value": "decreased only slightly"},
      {"measurement": "HDAC inhibition in FRDA cells (histone acetylation titration)", "setting": "[10]; increasing concentrations, western blotting", "value": "comparably active"},
      {"measurement": "effect on frataxin protein levels", "setting": "[6]", "value": "without significant effect"},
      {"measurement": "activity against recombinant HDAC2", "setting": "recombinant HDAC2", "value": "similarly active"}
    ]},
    {"smiles": "CC(C)(C)OC(=O)Nc1ccc(NC(=O)CCCC(=O)C(F)(F)F)cc1", "note": "[compound 4, tert-butyl 4-(6,6,6-trifluoro-5-oxohexanamido)phenylcarbamate]", "values": [
      {"measurement": "up-regulation of FXN transcription", "setting": "[2]; concentrations up to 40 μM", "value": "failed to show up-regulation"},
      {"measurement": "tubulin acetylation", "setting": "[7]; 1 μM in culture medium for 24 h", "value": "potent inducer"},
      {"measurement": "tubulin acetylation", "setting": "[7]; FRDA lymphoblasts", "value": "highly active"},
      {"measurement": "IC50", "setting": "HDAC1 [8]", "value": 30, "unit": "µM"},
      {"measurement": "IC50", "setting": "HDAC7", "value": 4, "unit": "µM"},
      {"measurement": "preference for a class II HDAC (HDAC7) over a class I HDAC (HDAC1)", "setting": "HDAC7; from IC50 values", "value": 7.5, "unit": "fold"},
      {"measurement": "effect on levels of FXN mRNA", "setting": "[4]; concentrations up to 10 μM for 24 h", "value": "no positive effect"}
    ]},
    {"smiles": "Cc1ccc(NC(=O)CCCCCC(=O)Nc2ccccc2N)cc1", "note": "[compound 106]", "values": [
      {"measurement": "up-regulation of FXN mRNA levels", "setting": "[2]; 48 h", "value": "highly active"},
      {"measurement": "up-regulation of FXN mRNA", "setting": "[2]; 48 h", "value": "3 – 4 fold"},
      {"measurement": "IC50", "setting": "class II HDACs", "value": "> 180", "unit": "µM"},
      {"measurement": "tubulin acetylation", "setting": "[7]; FRDA lymphoblasts", "value": "Neither 106 nor 3 caused tubulin acetylation"},
      {"measurement": "inhibition kinetics with class I HDACs", "setting": "class I HDACs", "value": "slow-on/slow-off"},
      {"measurement": "hyperacetylation of histone H3 after inhibitor removal", "setting": "[10]", "value": "decreased only slightly"},
      {"measurement": "effect on frataxin protein levels", "setting": "[6]", "value": "positive effect"},
      {"measurement": "activity against HDAC8", "setting": "recombinant HDAC8", "value": "only weak inhibitory activity; also recorded: only weakly active"}
    ]},
    {"smiles": "CCCC(CCC)C(=O)O", "note": "[valproic acid]", "values": [
      {"measurement": "activation of FXN gene expression", "setting": "[1]", "value": "none"}
    ]}
  ]
}
